Measured values from ChEMBL document CHEMBL3132769, “Fragment growing to retain or alter the selectivity of anchored kinase hinge-binding fragments” (Medchemcomm, 2014).

Columns and labels:
[1] = molecular target: Protein kinase C theta type (Homo sapiens) (UniProt Q04759); experiment: Inhibition of human truncated PKC theta expressed in baculovirus assessed as substrate phosphorylation using fluorescence-labelled peptides as substrate at 0.06 uM after 90 mins by microfluidic peptide phosphorylation assay
[2] = molecular target: Mitogen-activated protein kinase kinase kinase kinase 4 (Homo sapiens) (UniProt O95819); experiment: Inhibition of human HGK catalytic domain expressed in baculovirus assessed as substrate phosphorylation using fluorescence-labelled peptides as substrate at 0.06 uM after 90 mins by microfluidic peptide phosphorylation assay
[3] = molecular target: Tyrosine-protein kinase Fyn (Homo sapiens) (UniProt P06241); experiment: Inhibition of human full length FYN expressed in baculovirus assessed as substrate phosphorylation using fluorescence-labelled peptides as substrate at 70 uM after 90 mins by microfluidic peptide phosphorylation assay
[4] = molecular target: RAC-alpha serine/threonine-protein kinase (Homo sapiens) (UniProt P31749); experiment: Inhibition of human AKT1 catalytic domain expressed in baculovirus assessed as substrate phosphorylation using fluorescence-labelled peptides as substrate at 70 uM after 90 mins by microfluidic peptide phosphorylation assay
[5] = molecular target: Serine/threonine-protein kinase MARK2 (Homo sapiens) (UniProt Q7KZI7); experiment: Inhibition of human full length MARK2 expressed in baculovirus assessed as substrate phosphorylation using fluorescence-labelled peptides as substrate at 0.2 uM after 90 mins by microfluidic peptide phosphorylation assay
[6] = molecular target: T1, Protein kinase C epsilon type (Homo sapiens) (UniProt Q02156); experiment: Inhibition of human truncated PKC epsilon expressed in baculovirus assessed as substrate phosphorylation using fluorescence-labelled peptides as substrate at 0.2 uM after 90 mins by microfluidic peptide phosphorylation assay
T1 sequence (whole entry): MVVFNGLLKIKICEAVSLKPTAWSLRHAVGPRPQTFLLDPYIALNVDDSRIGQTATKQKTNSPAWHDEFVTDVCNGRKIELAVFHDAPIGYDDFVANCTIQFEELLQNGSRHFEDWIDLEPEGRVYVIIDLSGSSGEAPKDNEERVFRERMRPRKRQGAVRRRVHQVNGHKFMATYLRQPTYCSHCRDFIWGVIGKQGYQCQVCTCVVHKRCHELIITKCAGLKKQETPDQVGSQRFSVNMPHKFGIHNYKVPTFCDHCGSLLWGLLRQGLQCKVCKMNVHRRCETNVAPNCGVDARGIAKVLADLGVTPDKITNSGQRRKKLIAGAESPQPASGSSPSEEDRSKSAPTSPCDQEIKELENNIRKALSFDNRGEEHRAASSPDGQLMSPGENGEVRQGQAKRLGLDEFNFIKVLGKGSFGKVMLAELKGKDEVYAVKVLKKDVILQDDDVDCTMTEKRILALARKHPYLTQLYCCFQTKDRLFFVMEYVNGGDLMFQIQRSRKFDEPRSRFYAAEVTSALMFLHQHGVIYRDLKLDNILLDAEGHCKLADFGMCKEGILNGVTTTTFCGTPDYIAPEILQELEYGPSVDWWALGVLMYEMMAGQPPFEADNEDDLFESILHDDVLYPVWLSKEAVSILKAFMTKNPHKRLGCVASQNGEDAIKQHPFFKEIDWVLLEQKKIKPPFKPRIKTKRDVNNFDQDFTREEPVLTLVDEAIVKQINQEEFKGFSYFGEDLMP

[7] = molecular target: Fibroblast growth factor receptor 3 (Homo sapiens) (UniProt P22607); experiment: Inhibition of human FGFR3 catalytic domain expressed in baculovirus assessed as substrate phosphorylation using fluorescence-labelled peptides as substrate at 9 uM after 90 mins by microfluidic peptide phosphorylation assay
[8] = molecular target: Protein kinase C gamma type (Homo sapiens) (UniProt P05129); experiment: Inhibition of human truncated PKC gamma expressed in baculovirus assessed as substrate phosphorylation using fluorescence-labelled peptides as substrate at 2 uM after 90 mins by microfluidic peptide phosphorylation assay
[9] = molecular target: T2, Serine/threonine-protein kinase 3 (Homo sapiens) (UniProt Q13188); experiment: Inhibition of human full length MST2 expressed in baculovirus assessed as substrate phosphorylation using fluorescence-labelled peptides as substrate at 2 uM after 90 mins by microfluidic peptide phosphorylation assay
T2 sequence (whole entry): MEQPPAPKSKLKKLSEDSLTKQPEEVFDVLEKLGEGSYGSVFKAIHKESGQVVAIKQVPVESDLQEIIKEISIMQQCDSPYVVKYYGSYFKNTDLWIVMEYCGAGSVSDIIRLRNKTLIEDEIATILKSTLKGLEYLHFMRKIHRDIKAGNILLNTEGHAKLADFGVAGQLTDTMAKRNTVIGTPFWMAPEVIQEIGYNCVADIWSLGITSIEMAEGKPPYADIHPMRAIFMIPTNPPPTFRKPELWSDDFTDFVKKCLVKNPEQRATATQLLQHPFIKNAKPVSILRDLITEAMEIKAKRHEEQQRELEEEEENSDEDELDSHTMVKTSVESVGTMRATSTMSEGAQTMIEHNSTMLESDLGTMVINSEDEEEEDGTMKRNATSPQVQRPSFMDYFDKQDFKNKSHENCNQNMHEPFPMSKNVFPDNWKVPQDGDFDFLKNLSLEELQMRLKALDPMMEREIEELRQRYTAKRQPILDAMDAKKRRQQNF

[10] = molecular target: Casein kinase I isoform alpha (Homo sapiens) (UniProt P48729); experiment: Inhibition of human full length CSNK1A1 expressed in baculovirus assessed as substrate phosphorylation using fluorescence-labelled peptides as substrate at […] after 90 mins by microfluidic peptide phosphorylation assay
[11] = molecular target: T3, Protein kinase C zeta type (Homo sapiens) (UniProt Q05513); experiment: Inhibition of human full length PKC zeta expressed in baculovirus assessed as substrate phosphorylation using fluorescence-labelled peptides as substrate at 8 uM after 90 mins by microfluidic peptide phosphorylation assay
T3 sequence (whole entry): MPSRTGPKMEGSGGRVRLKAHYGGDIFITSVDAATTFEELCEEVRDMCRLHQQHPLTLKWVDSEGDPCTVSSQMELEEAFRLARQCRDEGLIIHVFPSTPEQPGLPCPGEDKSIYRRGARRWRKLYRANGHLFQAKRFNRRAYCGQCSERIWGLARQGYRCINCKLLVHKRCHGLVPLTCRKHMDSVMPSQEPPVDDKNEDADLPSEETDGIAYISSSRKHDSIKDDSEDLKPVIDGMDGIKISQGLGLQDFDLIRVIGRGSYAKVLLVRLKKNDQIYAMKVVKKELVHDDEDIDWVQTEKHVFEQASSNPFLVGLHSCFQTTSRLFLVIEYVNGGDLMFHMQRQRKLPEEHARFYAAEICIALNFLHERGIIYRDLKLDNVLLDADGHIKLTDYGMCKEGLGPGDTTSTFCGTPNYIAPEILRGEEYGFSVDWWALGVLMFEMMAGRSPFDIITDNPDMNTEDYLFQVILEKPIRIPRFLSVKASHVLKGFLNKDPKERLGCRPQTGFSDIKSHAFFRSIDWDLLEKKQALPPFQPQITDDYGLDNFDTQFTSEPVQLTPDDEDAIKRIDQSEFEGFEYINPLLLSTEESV

[12] = molecular target: Hepatocyte growth factor receptor (Homo sapiens) (UniProt P08581); details: 0.1 uM
Sequence of Hepatocyte growth factor receptor (Homo sapiens) (P08581 whole entry): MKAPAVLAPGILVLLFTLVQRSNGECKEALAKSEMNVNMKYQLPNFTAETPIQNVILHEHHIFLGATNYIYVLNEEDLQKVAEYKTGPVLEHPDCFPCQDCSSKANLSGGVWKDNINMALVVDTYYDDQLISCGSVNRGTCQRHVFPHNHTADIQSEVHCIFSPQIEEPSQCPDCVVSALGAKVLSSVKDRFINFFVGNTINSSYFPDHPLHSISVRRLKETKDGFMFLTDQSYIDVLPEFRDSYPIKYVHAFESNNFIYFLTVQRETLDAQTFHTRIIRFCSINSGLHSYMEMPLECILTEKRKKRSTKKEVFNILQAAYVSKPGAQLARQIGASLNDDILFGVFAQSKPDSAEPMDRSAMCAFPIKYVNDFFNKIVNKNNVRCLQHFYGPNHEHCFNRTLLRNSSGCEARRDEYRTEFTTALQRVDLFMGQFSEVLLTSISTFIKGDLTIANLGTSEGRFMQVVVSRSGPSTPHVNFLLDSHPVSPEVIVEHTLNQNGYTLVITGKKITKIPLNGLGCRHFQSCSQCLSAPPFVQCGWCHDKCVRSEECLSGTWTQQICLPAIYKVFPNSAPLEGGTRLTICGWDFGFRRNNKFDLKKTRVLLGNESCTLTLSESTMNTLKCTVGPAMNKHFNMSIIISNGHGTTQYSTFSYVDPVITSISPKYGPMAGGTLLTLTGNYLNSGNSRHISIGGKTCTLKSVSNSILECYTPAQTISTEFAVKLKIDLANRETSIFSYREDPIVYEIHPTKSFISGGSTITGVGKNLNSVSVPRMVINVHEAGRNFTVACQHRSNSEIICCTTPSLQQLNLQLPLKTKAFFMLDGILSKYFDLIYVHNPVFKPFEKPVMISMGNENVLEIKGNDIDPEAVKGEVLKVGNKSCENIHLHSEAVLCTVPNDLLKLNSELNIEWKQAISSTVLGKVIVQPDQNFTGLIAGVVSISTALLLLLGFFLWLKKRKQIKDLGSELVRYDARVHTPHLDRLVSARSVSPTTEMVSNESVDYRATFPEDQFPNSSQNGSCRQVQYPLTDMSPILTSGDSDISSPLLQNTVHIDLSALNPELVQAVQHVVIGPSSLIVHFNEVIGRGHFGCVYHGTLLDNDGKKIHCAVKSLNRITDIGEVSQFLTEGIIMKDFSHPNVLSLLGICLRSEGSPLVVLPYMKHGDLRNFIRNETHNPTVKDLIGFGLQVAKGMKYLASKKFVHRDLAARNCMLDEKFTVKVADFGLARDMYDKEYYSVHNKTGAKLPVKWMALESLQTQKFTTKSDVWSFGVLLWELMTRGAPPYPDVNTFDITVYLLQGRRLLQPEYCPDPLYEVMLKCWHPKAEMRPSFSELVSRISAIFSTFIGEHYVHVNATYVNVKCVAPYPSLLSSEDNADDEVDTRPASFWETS
Description: Inhibition of human MET cytoplasmic domain expressed in baculovirus assessed as substrate phosphorylation using fluorescence-labelled peptides as substrate at 0.1 uM after 90 mins by microfluidic peptide phosphorylation assay

Sequence of Serine/threonine-protein kinase MARK2 (Homo sapiens) (Q7KZI7 whole entry, the tested form may be a part): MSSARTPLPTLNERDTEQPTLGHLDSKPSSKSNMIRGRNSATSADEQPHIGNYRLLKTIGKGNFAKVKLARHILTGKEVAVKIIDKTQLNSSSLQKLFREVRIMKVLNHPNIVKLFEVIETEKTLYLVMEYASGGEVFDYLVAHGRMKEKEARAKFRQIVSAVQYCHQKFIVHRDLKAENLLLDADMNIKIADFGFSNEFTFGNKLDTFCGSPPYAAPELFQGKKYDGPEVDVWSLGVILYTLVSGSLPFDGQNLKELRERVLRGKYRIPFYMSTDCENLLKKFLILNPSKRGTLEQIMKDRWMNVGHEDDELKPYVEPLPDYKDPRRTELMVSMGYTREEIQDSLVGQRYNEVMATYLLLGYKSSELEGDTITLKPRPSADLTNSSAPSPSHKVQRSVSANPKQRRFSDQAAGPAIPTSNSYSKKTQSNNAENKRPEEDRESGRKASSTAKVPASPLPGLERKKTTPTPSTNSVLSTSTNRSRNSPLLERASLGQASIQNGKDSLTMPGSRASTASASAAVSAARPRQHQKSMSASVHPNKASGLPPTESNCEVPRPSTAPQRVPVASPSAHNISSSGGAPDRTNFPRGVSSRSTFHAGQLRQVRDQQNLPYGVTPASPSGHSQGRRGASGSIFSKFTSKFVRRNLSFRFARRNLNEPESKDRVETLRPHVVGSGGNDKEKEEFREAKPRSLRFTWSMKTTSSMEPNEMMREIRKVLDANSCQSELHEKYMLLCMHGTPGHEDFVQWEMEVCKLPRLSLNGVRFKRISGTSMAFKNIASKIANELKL
Sequence of Casein kinase I isoform alpha (Homo sapiens) (P48729 2-337 limits assumed): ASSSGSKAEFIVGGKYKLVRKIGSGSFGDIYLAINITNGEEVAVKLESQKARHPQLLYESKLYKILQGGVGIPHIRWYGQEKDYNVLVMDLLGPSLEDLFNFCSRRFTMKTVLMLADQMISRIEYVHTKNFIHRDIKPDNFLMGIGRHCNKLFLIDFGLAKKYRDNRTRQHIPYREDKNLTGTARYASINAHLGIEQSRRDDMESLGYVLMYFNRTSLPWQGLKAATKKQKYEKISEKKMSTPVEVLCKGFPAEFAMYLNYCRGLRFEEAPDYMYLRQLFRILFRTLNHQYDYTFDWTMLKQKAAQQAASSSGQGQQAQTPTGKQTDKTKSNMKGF
Sequence of Fibroblast growth factor receptor 3 (Homo sapiens) (P22607 23-806 limits assumed): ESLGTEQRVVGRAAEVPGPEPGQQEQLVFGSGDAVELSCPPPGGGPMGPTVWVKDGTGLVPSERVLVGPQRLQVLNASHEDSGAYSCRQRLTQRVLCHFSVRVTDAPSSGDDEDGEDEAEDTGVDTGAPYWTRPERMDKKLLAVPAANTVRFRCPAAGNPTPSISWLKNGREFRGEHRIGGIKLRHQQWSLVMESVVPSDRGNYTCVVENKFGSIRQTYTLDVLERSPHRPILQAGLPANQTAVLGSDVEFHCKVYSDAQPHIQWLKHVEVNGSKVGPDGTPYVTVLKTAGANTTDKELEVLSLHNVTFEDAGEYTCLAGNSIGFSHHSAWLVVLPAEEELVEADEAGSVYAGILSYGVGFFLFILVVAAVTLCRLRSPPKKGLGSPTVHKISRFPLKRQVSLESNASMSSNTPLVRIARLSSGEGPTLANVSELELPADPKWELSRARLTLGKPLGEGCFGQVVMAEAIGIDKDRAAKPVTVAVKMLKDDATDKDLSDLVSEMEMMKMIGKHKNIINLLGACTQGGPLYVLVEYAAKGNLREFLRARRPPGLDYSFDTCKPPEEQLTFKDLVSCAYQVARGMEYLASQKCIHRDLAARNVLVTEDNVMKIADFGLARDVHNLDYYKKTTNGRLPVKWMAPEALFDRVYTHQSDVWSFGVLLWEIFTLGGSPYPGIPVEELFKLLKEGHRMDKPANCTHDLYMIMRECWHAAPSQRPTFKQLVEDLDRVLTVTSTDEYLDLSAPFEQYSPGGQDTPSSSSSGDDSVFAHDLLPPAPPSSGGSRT
Sequence of Mitogen-activated protein kinase kinase kinase kinase 4 (Homo sapiens) (O95819 2-1239 limits assumed): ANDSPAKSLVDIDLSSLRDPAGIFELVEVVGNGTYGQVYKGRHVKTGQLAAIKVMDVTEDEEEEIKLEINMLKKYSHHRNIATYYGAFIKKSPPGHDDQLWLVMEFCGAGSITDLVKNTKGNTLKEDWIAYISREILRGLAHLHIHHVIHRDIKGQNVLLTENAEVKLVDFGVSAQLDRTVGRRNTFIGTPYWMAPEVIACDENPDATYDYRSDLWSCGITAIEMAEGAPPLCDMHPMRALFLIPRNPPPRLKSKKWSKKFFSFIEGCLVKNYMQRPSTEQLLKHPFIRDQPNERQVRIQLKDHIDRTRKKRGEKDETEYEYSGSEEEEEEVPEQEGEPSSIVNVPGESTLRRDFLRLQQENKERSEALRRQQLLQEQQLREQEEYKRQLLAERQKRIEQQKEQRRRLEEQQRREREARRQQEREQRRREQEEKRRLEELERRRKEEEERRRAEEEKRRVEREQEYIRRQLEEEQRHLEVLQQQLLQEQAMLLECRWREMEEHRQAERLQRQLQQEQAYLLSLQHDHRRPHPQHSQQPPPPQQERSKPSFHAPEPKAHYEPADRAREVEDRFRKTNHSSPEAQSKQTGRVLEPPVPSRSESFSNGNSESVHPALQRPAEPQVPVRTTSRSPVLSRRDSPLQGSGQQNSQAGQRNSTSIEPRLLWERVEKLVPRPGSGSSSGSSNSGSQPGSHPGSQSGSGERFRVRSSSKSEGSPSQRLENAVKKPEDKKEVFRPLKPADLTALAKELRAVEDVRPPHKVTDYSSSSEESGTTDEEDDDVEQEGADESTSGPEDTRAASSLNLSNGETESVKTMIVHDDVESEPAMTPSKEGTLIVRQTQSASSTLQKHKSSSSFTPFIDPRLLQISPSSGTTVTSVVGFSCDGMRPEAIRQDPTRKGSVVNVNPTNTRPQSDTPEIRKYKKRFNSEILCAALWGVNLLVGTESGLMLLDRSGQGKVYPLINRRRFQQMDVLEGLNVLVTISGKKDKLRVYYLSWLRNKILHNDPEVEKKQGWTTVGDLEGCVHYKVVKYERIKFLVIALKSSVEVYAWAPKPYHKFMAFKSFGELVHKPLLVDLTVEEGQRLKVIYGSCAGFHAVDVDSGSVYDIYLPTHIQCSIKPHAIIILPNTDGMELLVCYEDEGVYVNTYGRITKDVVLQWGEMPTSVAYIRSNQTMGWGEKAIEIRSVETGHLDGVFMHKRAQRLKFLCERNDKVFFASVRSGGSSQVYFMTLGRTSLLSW
Sequence of RAC-alpha serine/threonine-protein kinase (Homo sapiens) (P31749 whole entry, the tested form may be a part): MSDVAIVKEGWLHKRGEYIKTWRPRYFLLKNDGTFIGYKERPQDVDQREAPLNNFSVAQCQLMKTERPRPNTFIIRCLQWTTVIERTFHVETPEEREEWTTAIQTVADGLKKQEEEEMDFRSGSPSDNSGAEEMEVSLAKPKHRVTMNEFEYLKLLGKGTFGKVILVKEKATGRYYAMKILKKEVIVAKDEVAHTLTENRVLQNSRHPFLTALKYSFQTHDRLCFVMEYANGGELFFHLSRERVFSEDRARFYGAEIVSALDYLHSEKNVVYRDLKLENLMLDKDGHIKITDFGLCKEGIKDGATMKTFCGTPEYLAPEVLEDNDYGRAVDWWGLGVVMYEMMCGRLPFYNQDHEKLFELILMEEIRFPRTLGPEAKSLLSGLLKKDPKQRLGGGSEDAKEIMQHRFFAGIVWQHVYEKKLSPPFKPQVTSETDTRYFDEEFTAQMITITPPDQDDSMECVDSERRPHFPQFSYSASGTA

NC1(Cc2ccc(Cl)cc2)CCN(c2ncnc3[nH]ccc23)CC1
inhibition [1]: 4.5% | inhibition [2]: 1%

CNCc1ccc(-c2ncnc3[nH]cnc23)cc1
inhibition [3]: 31.5% | inhibition [4]: 64.5%

Clc1ccc(C2(c3ccc(-c4ncnc5[nH]cnc45)cc3)CCNCC2)cc1
inhibition [5]: 41.5% | inhibition [6]: 46.5%

NCC1CN(c2ncnc3[nH]c4cnccc4c23)CCO1 (configuration not stated)
inhibition [7]: 43.5%

NC1CCN(c2ncnc3[nH]ccc23)CC1
inhibition [8]: 57.5% | inhibition [9]: 17.5%

COC(=O)c1cnc(Nc2cnc(C#N)cn2)cc1NCC1CCNCC1
inhibition [10]: 2%

NCC1CCN(c2ncnc3[nH]ccc23)CC1
inhibition [11]: 67.5%

C[C@H](CN(C)C)Oc1nc(Nc2cc3cccc(Cl)c3cn2)cnc1C#N
inhibition [12]: 0%
